Source: patent US20230279346A1, “METHODS OF DIFFERENTIATION TO NEURONAL CELLS AND KITS THEREFOR” (priority 2016, published 2023)

Assays:
H9 ESC-derived NSCs [1] = assay: EdU incorporation proliferation assay (CLICK-IT EdU); format: cell-based, human; settings: Day 6 of differentiation, EdU 24 h; 0.2 micromolar
Protocol: (§1) Differentiation of H9 ESC-derived NSCs was the same as for Example 2. At Day 6 of differentiation, cells were incubated with the nucleoside thymidine analog EdU for 24 h. EdU is incorporated into DNA during active DNA synthesis with the result that proliferating cells become labeled. EdU positive cells were detected using the CLICK-IT™ EdU Alexa FLUOR™ 488 HCS Assay (Cat. No. C10350, Thermo Fisher Scientific, Waltham Mass.) according to the manufacturer's protocols. Cells were then fixed with 4% paraformaldehyde and stained with antibodies against the apoptotic cell death marker caspase 9 (polyclonal, Cat. No. PA5-16358, Thermo Fisher Scientific, Waltham Mass.) according to the manufacturer's protocol.

H9 ESC-derived NSCs [2] = assay: Long-term maintenance of differentiated neuronal cells; format: cell-based, human; settings: 0.2 micromolar; without inhibitor cells detached at three weeks
Excerpt: (§2) To differentiate the NSCs into neuronal cells, cryo-preserved H9 ESC-derived NSCs were thawed and plated on poly-D-lysine 96-well plates (Cat. No. 08-774-255, Thermo Fisher Scientific, Waltham Mass.) coated with laminin (Cat. No. 23017, Thermo Fisher Scientific, Waltham Mass.) at a density of 5×10^4 cells/cm2. The cultures were maintained in the neuronal differentiation medium containing NEUROBASAL™ Medium (Cat. No. 21103, Thermo Fisher Scientific, Waltham Mass.), 2% B27 Supplement (Cat. No. 17504, Thermo Fisher Scientific, Waltham Mass.), 1% GLUTAMAX™ Supplement (Cat. No. 35050, Thermo Fisher Scientific, Waltham Mass.) and 200 micromolar ascorbic acid (Cat. No. A8960, Sigma-Aldrich, St. Louis Mo.) with or without the gamma-secretase inhibitor Compound E (0.2 micromolar, Cat. No. 565790, EMD Millipore, Billerica Mass.). Every 2-3 days, half spent medium was removed from each well of the culture plates and the same volume of fresh medium was added into each well.
For this study, the differentiation of H9 ESC-derived NSCs was the same as for Example 2. Without presence of the gamma secretase inhibitor during differentiation, neuronal cells detached from the culture plate at three weeks after differentiation as shown by the image of FIG. 7A. This effect may be due to the very high density of proliferated neural stem cells present. […]

H9 ESC-derived NSCs [3] = assay: Cell clump area after neuronal differentiation (INCUCYTE ZOOM System); format: cell-based, human; settings: for cell clumping vs control group (cell clump area, FIG. 6): two weeks, Compound E 0.2, YO-01027 0.3, LY411575 0.25, MK-0752 20 micromolar, p<0.01
Protocol: Also, at the end of that two week period of differentiation, the area of cell clumps was calculated using the [sequence] ZOOM™ System (Essen BioScience, Ann Arbor Mich.) by defining the area of cell mass ≥10,000 μm^2 as a cell clump.
(§3) Cells cultured in differentiation medium without the presence of the gamma-secretase inhibitor served as a control. In the test groups, cells were separately differentiated in the presence of Compound E at 0.2 micromolar, YO-01027 at concentrations of 0.3 micromolar, 1.5 micromolar and 7.5 micromolar, LY411575 at concentrations of 0.01 micromolar, 0.05 micromolar, 0.25 micromolar, 0.5 micromolar, 1.0 micromolar and 2.0 micromolar, and MK-0752 at concentrations of 0.8 micromolar, 4 micromolar, 20 micromolar, 40 micromolar and at 80 micromolar. Eight wells were tested for each concentration of each inhibitor.
At the end of a two week period of differentiation, the area of cell clumps was calculated for each test well using the [sequence] ZOOM™ System (Essen BioScience, Ann Arbor Mich.) by defining the area of cell mass ≥10,000 μm2 as a cell clump and the data plotted in FIG. 6.

H9 ESC-derived NSCs [4] = assay: Immunofluorescent image analysis: cells positive for HuC/D and negative for SOX1; format: cell-based, human
Excerpt: as §3

iPSC-derived NSCs = assay: Differentiation of iPSC-derived NSCs, phase images and NESTIN/DCX staining; format: cell-based, human; settings: 0.1 micromolar
Excerpt: Human induced pluripotent stem cells were derived from human fibroblasts using the CYTOTUNE™-iPS 2.0 Sendai Reprogramming Kit (Cat. No. A16517, INVITROGEN™, a part of Thermo Fisher Scientific, Waltham Mass.) and were induced to neural stem cells (NSCs) using the xeno free version of the GIBCO™ PSC Neural Induction Medium (Cat. No. A1647801, Thermo Fisher Scientific, Waltham Mass.).
To differentiate the NSCs into neuronal cells, cryo-preserved iPSC-derived NSCs were recovered and NSC passage three cells were plated on a 24 well plate (Cat. No. 087721, Thermo Fisher Scientific, Waltham Mass.) coated with human laminin (Cat. No. L6274, Sigma-Aldrich, St. Louis Mo.) at a density of 1˜5×10^4 cells/cm2. The cultures were maintained in neuronal differentiation medium containing NEUROBASAL™ Medium (Cat. No. 21103, Thermo Fisher Scientific, Waltham Mass.), 2% B27 Xeno Free Supplement (Cat. No. A1486701, Thermo Fisher Scientific, Waltham Mass.), 200 micromolar ascorbic acid (Cat. No. A8960, Sigma-Aldrich, St. Louis Mo.) with or without the gamma-secretase inhibitor Compound E (0.1 micromolar, Cat. No. 565790, EMD Millipore, Billerica Mass.). Every 2-3 days, medium was replenished with respective medium.
[…] No. 48-1200, Thermo Fisher Scientific, Waltham Mass.) and the neural stem cell marker NESTIN (Monoclonal, Cat. No. 611658, BD Biosciences, Franklin Lakes N.J.) according to the manufacturers' protocols.

[5] = tested on: primary rat cortical neuronal cells; assay: Differentiation of primary rat cortical neuronal cells, GFAP and HuC&D staining; format: cell-based; settings: two weeks of differentiation
Excerpt: Cryopreserved primary rat cortical neuronal cells (Cat. No. A1084001, Thermo Fisher Scientific, Waltham Mass.), which had been isolated from rodent embryonic brain, were thawed and plated on poly-D-lysine 96-well plates (Cat. No. 08-774-255, Thermo Fisher Scientific, Waltham Mass.) coated with laminin (Cat. No. 23017, Thermo Fisher Scientific, Waltham Mass.) at a density of 8×10^4 cells/cm2. The culture medium was neuronal differentiation medium containing NEUROBASAL™ Medium (Cat. No. 21103, Thermo Fisher Scientific, Waltham Mass.), 2% B27 Supplement (Cat. No. 17504, Thermo Fisher Scientific, Waltham Mass.), 1% GLUTAMAX™ Supplement (Cat. No. 35050, Thermo Fisher Scientific, Waltham Mass.) without or with gamma secretase inhibitor Compound E. Every 2-3 days, half spent medium was removed from each well of the culture plates and the same volume of fresh medium was added into each well. At two weeks of differentiation, cells were fixed with 4% paraformaldehyde and stained with antibodies against neuronal marker HuC&D and astroglial marker glial fibrillary acidic protein (GFAP).

H9 ESC-derived NSCs [6] = assay: Caspase 9 staining for apoptotic cell death; format: cell-based, human; settings: six days of differentiation; 0.2 micromolar
Protocol: as §1

NSC cultures = assay: CYQUANT Direct Cell Proliferation Assay; format: cell-based
Protocol: The proliferation and electrophysiology of cells resulting from differentiation in the presence of Compound E were compared to NSC control cultures. NSC cultures were plated at 20,000 cells per well on Day 0.
The CYQUANT™ Direct Cell Proliferation Assay (Molecular Probes Cat. No. C35011, Eugene Oreg.) was used to provide quantitation of proliferation at Day 4 and Day 7 of culture.

[7] = tested on: H9 human ESC-derived NSCs; assay: Differentiation of H9 ESC-derived NSCs, phase-contrast images and MAP2/SOX1 staining; format: cell-based; settings: Day 14; 0.2 micromolar
Excerpt: as §2
At two weeks of NSC differentiation into neuronal cells, cells were fixed with 4% paraformaldehyde and stained with antibodies against neuronal marker MAP2 (polyclonal, Cat. No. PA5-17646, Thermo Fisher Scientific, Waltham Mass.) and neural stem cell marker SOX1 (polyclonal, Cat. No. AF3369, R&D Systems, Minneapolis Minn.) according to the manufacturers' protocols.

H9 ESC-derived NSCs [8] = assay: Cell toxicity during differentiation of NSCs; format: cell-based, human; settings: 160 micromolar
Excerpt: as §3
At the end of a two week period of differentiation, the area of cell clumps was calculated for each test well using the [sequence]

In the case of `C[C@H](NC(=O)Cc1cc(F)cc(F)c1)C(=O)N[C@H]1N=C(c2ccccc2)c2ccccc2N(C)C1=O` [Compound E, (S,S)-2-[2-(3,5-difluorophenyl)-acetylamino]-N-(1-methyl-2-oxo-5-phenyl-2-,3-dihydro-1H-benzo[e][1,4]diazepin-3-yl)-propionamide], the “proliferation of neural stem cells (EdU positive cells)” value (H9 ESC-derived NSCs [1]) is reported as “substantially arrested”, the “time differentiated neuronal cells can be maintained in culture” value (H9 ESC-derived NSCs [2]) is reported as “at least five weeks” and the “reduction in cell clumping” value (H9 ESC-derived NSCs [3]; Compound E 0.2 micromolar, two weeks of differentiation, cell mass >=10,000 μm2 counted as clump, vs without inhibitor) is reported as 90%. For the same compound, the “cell clumping vs control group (cell clump area, FIG. 6)” value (“cell clumping vs control group” for short) (H9 ESC-derived NSCs [3]) was “significant reduction in cell clumping”, the “percentage of cells co-stained positive for HuC/D and negative for SOX1” value (shortened to “percentage of cells co-stained positive”) (H9 ESC-derived NSCs [4]; at 0.2 micromolar) was 74.9% and the “neurite outgrowth (phase-contrast)” value (iPSC-derived NSCs; Day 5) was “extended neurite outgrowth”. The “neuronal phenotype (DCX stain)” value (iPSC-derived NSCs; Day 7) was “most of the cells present have adopted a neuronal phenotype”, the “proliferation of NESTIN positive cells” value (iPSC-derived NSCs; Day 7) was “substantially retarded” and the proliferating progenitor cells (iPSC-derived NSCs; Day 14) was “fewer proliferating progenitor cells are present”. For the same compound, the GFAP positive astrocytes [5] was “essentially eliminated”, the “cell death (caspase 9 positive cells)” value (H9 ESC-derived NSCs [6]) was “no significant amount of cell death” and the “reduction in cell count vs control culture” value (NSC cultures; Day 4) was ~2.5 fold. The “relative fluorescence units (cell proliferation)” value (“relative fluorescence units” below) (NSC cultures; Day 4, control 0.93) was 0.36 RFU, the “relative fluorescence units” value (NSC cultures; Day 7, control 2.94) was 0.55 RFU and the “increase in RFU at Day 7 compared to Day 4” value (NSC cultures; Day 7 vs Day 4) was ~1.5 fold. The “relative fluorescence units” value (NSC cultures; Day 14, control 18.7) was 0.41 RFU, the “relative fluorescence units” value (NSC cultures; Day 21, control 21.5) was 0.30 RFU and the “cell clump formation (phase-contrast image)” value [7] was “without formation of cell clumps”.
In the case of `C[C@H](NC(=O)[C@@H](O)c1cc(F)cc(F)c1)C(=O)N[C@@H]1C(=O)N(C)c2ccccc2-c2ccccc21` [LY411575, N-2((2S)-2-(3,5-difluorophenyl)-2-hydroxyethanoyl)-N1-((7S)-5-methyl-6-oxo-6,7-dihydro-5H-dibenzo[b,d]azepin-7-yl)-1-alaninamide], the “cell clumping vs control group” value (H9 ESC-derived NSCs [3]) is reported as “significant reduction in cell clumping” and the “percentage of cells co-stained positive” value (H9 ESC-derived NSCs [4]; at 0.25 micromolar) is reported as 64.7%.
For `O=C(O)CC[C@H]1CC[C@@](c2cc(F)ccc2F)(S(=O)(=O)c2ccc(Cl)cc2)CC1` [MK-0752], the “cell clumping vs control group” value (H9 ESC-derived NSCs [3]) was “significant reduction in cell clumping”, the “percentage of cells co-stained positive” value (H9 ESC-derived NSCs [4]; at 20 micromolar) was 64.7% and the cell toxicity (H9 ESC-derived NSCs [8]) was “cell toxicity”.
In the case of `C[C@H](NC(=O)Cc1cc(F)cc(F)c1)C(=O)N[C@H]1N=C(c2ccccc2)c2ccccc2N(C)C1=O` [YO-01027, (S,S)-2-[2-(3,5-difluorophenyl)-acetylamino]-N-(1-methyl-2-oxo-5-phenyl-2-,3-dihydro-1H-benzo[e][1,4]diazepin-3-yl)-propionamide], the “percentage of cells co-stained positive” value (H9 ESC-derived NSCs [4]; at 0.3 micromolar) is reported as 73.4%.
